Drawing on patent US12503436B2, “Compounds and compositions for treating conditions associated with STING activity” (NOVARTIS PHARMA AG, priority 2021, dated 2025), this text covers EC50 for 25 compounds.

The target in this experiment is STING (Homo sapiens, UniProt Q86WV6, G230A/H232R/R293Q/R71H). The experiment is described as follows: STING reporter assay in THP1-Dual KO-IFNAR2 cells (2′3′cGAMP stimulation, luciferase reporter). The format is cell-based. The settings on record: 15 μM 2′3′cGAMP stimulation, 24 h, read-out: Pharmaron, THP1_IFNAR2 STING 24 h Luci Normalized: GeoMean EC50. In short, it runs like this: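 EC50 from secreted luciferase (QUANTI-Luc Plus luminescence of supernatant) after 24 h at 37 °C, 5% CO2. Cells: THP1-Dual KO-IFNAR2, treated with compound (0.0017-100 μM final) plus lipofected 2′3′cGAMP at 15 μM final.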
Sequence of STING (Q86WV6 whole entry R71H/G230A/H232R/R293Q): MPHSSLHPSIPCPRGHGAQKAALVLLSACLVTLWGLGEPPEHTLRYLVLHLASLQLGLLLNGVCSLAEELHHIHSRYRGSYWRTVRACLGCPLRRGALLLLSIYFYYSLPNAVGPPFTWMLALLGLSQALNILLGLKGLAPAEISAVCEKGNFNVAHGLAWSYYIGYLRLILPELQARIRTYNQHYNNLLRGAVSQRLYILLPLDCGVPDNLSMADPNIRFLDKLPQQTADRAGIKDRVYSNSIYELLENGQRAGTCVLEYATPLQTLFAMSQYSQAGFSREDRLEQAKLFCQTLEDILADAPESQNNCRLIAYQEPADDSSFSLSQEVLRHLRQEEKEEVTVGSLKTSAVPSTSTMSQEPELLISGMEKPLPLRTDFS
(A reporter such as luciferase makes a cellular process visible.)
Usually EC50 stands for the concentration that produces a half-maximal response. For `CC(=O)Nc1c[nH]c2ccc(O[C@@H]3C[C@@H](c4ccc(C(F)(F)F)cc4)[C@@H]3C)cc12` [Compound 448, N-(5-((1R,2S,3R)-2-methyl-3-(4-(trifluoromethyl)phenyl)cyclobutoxy)-1H-indol-3-yl)acetamide], the EC50 was in the range of 40 to 200 nM.

Take `CC1(C)CC(C(=O)Nc2c[nH]c3ccc(OCCc4ccc(C(F)(F)F)cc4)cc23)C1` [Compound 236, 3,3-dimethyl-N-(5-(4-(trifluoromethyl)phenethoxy)-1H-indol-3-yl)cyclobutane-1-carboxamide]: the EC50 was 40 to 200 nM.

Regarding `CC(=O)Nc1c[nH]c2ccc(OCCC34CC(C3)C4)cc12` [Compound 458, N-(5-(2-(bicyclo[1.1.1]pentan-1-yl)ethoxy)-1H-indol-3-yl)acetamide], the EC50 lay in the range of 1000 to 5000 nM.

Take `CO[C@H]1C[C@H](C(=O)Nc2c[nH]c3ccc(OCCc4ccc(C(F)(F)F)cc4)cc23)C1` [Compound 211, trans-3-methoxy-N-(5-(4-(trifluoromethyl)phenethoxy)-1H-indol-3-yl)cyclobutane-1-carboxamide]: the EC50 was 40 to 200 nM.

With `CC(=O)Nc1c[nH]c2ccc(CCOc3ccc(C(F)(F)F)cc3)c(F)c12` [Compound 213, N-(4-fluoro-5-(2-(4-(trifluoromethyl)phenoxy)ethyl)-1H-indol-3-yl)acetamide], the EC50 fell in the range of 200 to 1000 nM.

Regarding `CCC(=O)Nc1c[nH]c2ccc(Cc3cc(C)ccc3O)cc12` [Compound 290, N-(5-(2-hydroxy-5-methylbenzyl)-1H-indol-3-yl)propionamide], the EC50 lay within 5000 to 100000 nM.

For the compound `C[C@]1(C(=O)Nc2c[nH]c3ccc(O[C@H]4C[C@H](c5ccc(C(F)(F)F)cc5)C4)cc23)CC[C@@H](O)CC1` (single isomer, unassigned) [Compound 426, cis-4-hydroxy-1-methyl-N-(5-(trans-3-(4-(trifluoromethyl)phenyl)cyclobutoxy)-1H-indol-3-yl)cyclohexane-1-carboxamide], the half-maximal effective concentration (EC50) fell in the range of 40 to 200 nM.

In the case of `C[C@H]1C[C@@H](C(=O)Nc2c[nH]c3ccc(CCOc4ccc(C(F)(F)F)cc4)cc23)C1` [Compound 393, cis-3-methyl-N-(5-(2-(4-(trifluoromethyl)phenoxy)ethyl)-1H-indol-3-yl)cyclobutane-1-carboxamide], the EC50 is 200 to 1000 nM.

As to `O=C(Nc1c[nH]c2ccc(O[C@H]3C[C@H](c4ccc(C(F)(F)F)cc4)C3)cc12)C1CC1(F)F` (stereo partly drawn) [Compound 574, 2,2-difluoro-N-(5-(trans-3-(4-(trifluoromethyl)phenyl)cyclobutoxy)-1H-indol-3-yl)cyclopropane-1-carboxamide], the EC50 lay within 40 to 200 nM.

`CC(=O)Nc1c[nH]c2ccc(OC(C)c3ccc(C(F)(F)F)cc3)cc12` (stereo not shown) [Compound 497, N-(5-(1-(4-(trifluoromethyl)phenyl)ethoxy)-1H-indol-3-yl)acetamide]: the 50% effective concentration (EC50) is 1000 to 5000 nM.

On to `CC(=O)Nc1c[nH]c2ccc(OC[C@@H]3[C@H]4CN(CC(F)(F)F)C[C@@H]34)cc12` [Compound 120, N-(5-(((1R,5S,6r)-3-(2,2,2-trifluoroethyl)-3-azabicyclo[3.1.0]hexan-6-yl)methoxy)-1H-indol-3-yl)acetamide], for which the EC50 was in the range of 5000 to 100000 nM.

Turning to `O=C(Nc1c[nH]c2ccc(/C=C/Cc3ccc(C(F)(F)F)cc3)cc12)C1CCC1` [Compound 135, (E)-N-(5-(3-(4-(trifluoromethyl)phenyl)prop-1-en-1-yl)-1H-indol-3-yl)cyclobutanecarboxamide], the EC50 lay in the range of 200 to 1000 nM.

In the case of `CC[C@@H](O)C(=O)Nc1c[nH]c2ccc(OCCc3ccc(C(F)(F)F)cc3)cc12` [Compound 431, (R)-2-hydroxy-N-(5-(4-(trifluoromethyl)phenethoxy)-1H-indol-3-yl)butanamide], the EC50 lay within 40 to 200 nM.

For the compound `CC(C)(O)CC(=O)Nc1c[nH]c2ccc(OCC[C@@H]3C[C@@H]4CN(CC(F)(F)F)C[C@@H]4C3)cc12` [Compound 523, 3-hydroxy-3-methyl-N-(5-(2-((3aR,5r,6aS)-2-(2,2,2-trifluoroethyl)octahydrocyclopenta[c]pyrrol-5-yl)ethoxy)-1H-indol-3-yl)butanamide], the EC50 was 200 to 1000 nM.

As to `O=C(Nc1c[nH]c2ccc(OCc3ccc(C(F)(F)F)cc3)cc12)C1CC(F)(F)C1` [Compound 584, 3,3-difluoro-N-(5-((4-(trifluoromethyl)benzyl)oxy)-1H-indol-3-yl)cyclobutane-1-carboxamide], the EC50 lay in the range of 200 to 1000 nM.

As for `CC(=O)Nc1c[nH]c2ccc(CCOc3ccc(Cl)nc3C)cc12` [Compound 556, N-(5-(2-((6-chloro-2-methylpyridin-3-yl)oxy)ethyl)-1H-indol-3-yl)acetamide], the EC50 was 5000 to 100000 nM.

For the compound `N#CC1(C(=O)Nc2c[nH]c3ccc(O[C@H]4C[C@H](c5ccc(C(F)(F)F)cc5)C4)cc23)CC1` [Compound 565, 1-cyano-N-(5-(trans-3-(4-(trifluoromethyl)phenyl)cyclobutoxy)-1H-indol-3-yl)cyclopropane-1-carboxamide], the EC50 was 200 to 1000 nM.

As to `CCC(=O)Nc1c[nH]c2ccc(OCc3ccc(C(F)(F)F)cc3)cc12` [Compound 138, N-(5-((4-(trifluoromethyl)benzyl)oxy)-1H-indol-3-yl)propionamide], the EC50 fell in the range of 200 to 1000 nM.

Take `N#C[C@H]1C[C@@H]1C(=O)Nc1c[nH]c2ccc(O[C@H]3C[C@H](c4ccc(C(F)(F)F)cc4)C3)cc12` [Compound 562, (1s,2s)-2-cyano-N-(5-((trans)-3-(4-(trifluoromethyl)phenyl)cyclobutoxy)-1H-indol-3-yl)cyclopropane-1-carboxamide]: the EC50 lay within 200 to 1000 nM.

Regarding `CC(=O)Nc1c[nH]c2ccc(CC(Cc3ccc(C(F)(F)F)cc3)NC(C)=O)cc12` (stereo not shown) [Compound 516, N-(1-(3-acetamido-1H-indol-5-yl)-3-(4-(trifluoromethyl)phenyl)propan-2-yl)acetamide], the EC50 is 5000 to 100000 nM.

As for `O=C(Nc1c[nH]c2ccc(O[C@H]3C[C@@H](c4ccc(C(F)(F)F)cc4)C3)cc12)C1CC(F)C1` (stereo partly drawn) [Compound 576, 3-fluoro-N-(5-(cis-3-(4-(trifluoromethyl)phenyl)cyclobutoxy)-1H-indol-3-yl)cyclobutane-1-carboxamide], the EC50 is 40 to 200 nM.

Regarding `N#CC1(C(=O)Nc2c[nH]c3ccc(OCCc4ccc(C(F)(F)F)cc4)cc23)CC1` [Compound 193, 1-cyano-N-(5-(4-(trifluoromethyl)phenethoxy)-1H-indol-3-yl)cyclopropane-1-carboxamide], the concentration for a half-maximal effect (EC50) lay in the range of 200 to 1000 nM.

Turning to `CC(=O)Nc1c[nH]c2ccc(CCOc3cnc4c(OC(F)(F)F)cccc4c3)cc12` [Compound 477, N-[5-(2-{[8-(trifluoromethoxy)quinolin-3-yl]oxy}ethyl)-1H-indol-3-yl]acetamide], the EC50 lay in the range of 1000 to 5000 nM.

With `CC(=O)Nc1c[nH]c2ccc(CCOc3ccc(C#N)cc3)cc12` [Compound 462, N-{5-[2-(4-cyanophenoxy)ethyl]-1H-indol-3-yl}acetamide], the EC50 fell in the range of 1000 to 5000 nM.

On to `O=C(Nc1c[nH]c2ccc(OCC[C@@H]3C[C@@H]4CN(CC(F)(F)F)C[C@@H]4C3)cc12)C1CC1` [Compound 182, N-(5-(2-((3aR,5r,6aS)-2-(2,2,2-trifluoroethyl)octahydrocyclopenta[c]pyrrol-5-yl)ethoxy)-1H-indol-3-yl)cyclopropanecarboxamide], for which the EC50 lay in the range of 200 to 1000 nM.
